Measured values published in PMC5399447, “Neuroprotective pentapeptide CN-105 is associated with reduced sterile inflammation and improved functional outcomes in a traumatic brain injury murine model” (Scientific Reports, 2017).

Test system: microglia in hippocampus of TBI injured mice
Test: F4/80 immunostained microglia, unbiased stereology
Type: in vivo, mouse
Settings: 0.05 mg/kg, 10 days post TBI
Description: To assess the effects of CN-105 on inflammation, neuronal injury and neuronal loss, immunohistochemical(IHC) staining was performed using the F4/80 antibody(a marker for mature microglia and macrophages; rat monoclonal, 1:10,000; Serotec, Raleigh, NC) and the Fluoro-Jade B stain(a marker of degenerating neurons; Histo-Chem Inc. Jefferson, AR) on days 10 and 1, respectively, after TBI. IHC was performed on separate cohorts of mice from those used in neurobehavioral tests. As previously described, mice were anesthetized, euthanized, and perfused with 30 ml phosphate-buffered saline(PBS) via transcardiac puncture. The brains were then immersed in buffered formalin overnight and saturated with 30% sucrose in buffer. Sagittal sections(40 μm) were sliced on a freezing microtome and collected in cryoprotectant solution. […]
Prior to quantification, all slides were coded and the analyst was blinded to avoid experimenter bias. For the F4/80 quantification the brains of 5 TBI treated and 6 TBI vehicle treated mice(4–6 sections/mouse) were counted. Every eighth section of the dorsal hippocampus, according to the Paxinos and Franklin(2001) mouse brain atlas, was analyzed using the Stereo Investigator 7.0 software(MicroBrightField, Williston, VT). […] An average of 12 counting frames was analyzed per section, the grid size was 450 × 450 μm, and the dissector dimensions were 80 × 80 × 10 μm. […]

Substance: Ac-VSRRR-amide [CN-105]
- density of F4/80 microglia in dorsal hippocampus compared to vehicle (5 treated and 6 vehicle mice, p = 0.0002): significant decrease in density of microglia
- microglia morphology (hippocampus): almost exclusively small ramified microglia
